Source: US20240376176A1 (priority 2021, published 2024)
Where a name gives a salt, the structure may show the parent alone.

Columns and labels:
[1] = test system: sciatic nerve; conditions: rat, in vivo
[2] = test system: sciatic nerves and adjacent tissues; conditions: rat, in vivo
[3] = target: natural sodium channel proteins; conditions: cited from earlier work

Structure (SMILES)	Duration of nerve block [1] [h]	Inflammation Score (range) Day 4 [2]	Inflammation Score (range) Day 14 [2]	Myotoxicity Score (range) Day 4 [2]	Myotoxicity Score (range) Day 14 [2]	Kd [3] [nM]
CCCCN1CCCCC1C(=O)Nc1c(C)cccc1C (stereo not drawn) [Free Bup, bupivacaine hydrochloride]	2.4 ± 0.3					
NC1=N[C@H](O)[C@H]2[C@H]3O[C@]4(O)O[C@@H]([C@@H](O)[C@@]2(N1)[C@@H]4O)[C@]3(O)CO [Free TTX, tetrodotoxin]		0.5	0 (0-1.0)	0 (0-1.0)	0 (0-1.0)	~1.3
